Measurements taken from patent US20230212319A1, “NOVEL ANTIGEN BINDING DOMAINS AND SYNTHETIC ANTIGEN RECEPTORS INCORPORATING THE SAME” (University of Southern California, priority 2020, published 2023).

What was measured:
[1] = Flow cytometry of expanded CAR-T/SIR-T cells (Protein L staining, T cell surface markers); assay type: cell-based, human; details: CAR-T and SIR-T cells expanded 7 days with 1 µM
Protocol: Cells were expanded in XVIVO medium under standard conditions in the presence of IL2 and CD3/CD28 beads in the absence or presence of Birinapant 1 µM for 7 days and. After 7 days, cells were analyzed by flow cytometry for expression of different cell surface markers.
Cells were pelleted and re-suspended in XVIVO-15 (Lonza) T-cell medium supplemented with PSA, 100 IU/ml recombinant human IL2 and Dynabeads Human T-Activator CD3/CD28 and 5% hAB serum.
The cells were analyzed by flow cytometery for expresson of SIR by staining with Protein L and for presence of different T cell markers.
After 13 days of culture, cells were counted and analyzed by flow cytometry.

RAJI cells = test: T cell cytotoxicity against RAJI (Matador assay, Gluc); assay type: cell-based
Nalm6 cells = test: Cytokine ELISA (IFNγ, TNFα, IL-2) after co-culture with Nalm6; assay type: cell-based; details: T cells expanded 7 days with compound, co-cultured with Nalm6 48 h
Protocol: After 48 h, supernatant was collected and used for measurement of IFNγ, TNFα and IL-2 by ELISA.
Control T cells or SIR-T cells grown in regular flask or G-Rex 6-well plate were cultured with Nalm6-hGLuc 100 K/well/100 ul in 96-well plate U-bottom in XVIVO medium with no additional component. After 48 h co-culture, supernatant was collected and used for ELISA.
The supernatant from the different cell populations were tested for cytokine production upon co-culture with NALM6 cells.

CC[C@H](NC(=O)[C@H](C)NC)C(=O)N1C[C@@H](O)C[C@H]1Cc1c(-c2[nH]c3cc(F)ccc3c2C[C@@H]2C[C@H](O)CN2C(=O)[C@H](CC)NC(=O)[C@H](C)NC)[nH]c2cc(F)ccc12 [Birinapant]
CD4 cells [1]: decline | CD62L cells [1]: increase | proportion of CD8 cells [1]: increase | non-specific killing by uninfected control T cells expanded in presence of SMAC mimetic (RAJI cells; 100 nM or 1 µM, 16 days, RAJI-Gluc, 4 h): no effect | cell killing of RAJI cells by SAR-T cells expanded in presence of SMAC mimetic (RAJI cells; SAR SEQ ID NO: 7348 T cells expanded 16 days with 100 nM or 1 µM, E:T 0.25:1 and 0.5:1, 4 h): dose dependent increase | IFNγ secretion (Nalm6 cells): no significant decrease | IL2 secretion (Nalm6 cells): no significant decrease | TNFα secretion (Nalm6 cells): no significant decrease
